{"source": "patent US20080160520A1", "about": "“Methods and Composition for Diagnosing and Treating Cancer” (priority 2006, published 2008)", "format_in_all_cases": "cell-based, S. cerevisiae", "key": {"aneuploid yeast strains": {"tested_on": "aneuploid yeast strains", "conditions": "for colony formation of aneuploids on medium containing the agent: compared with wild-type cells, FIG. 13B, E, I", "text": "To determine whether the synthesis of proteins from the additional chromosomes and their presence in the cell represents an increased burden on the cell's protein production machinery, the ability of aneuploid strains to grow under conditions that interfere with transcription, protein synthesis and protein folding was examined."}, "[1]": {"tested_on": "cdc28-4 and cdc23-1 mutants", "assay": "Sensitivity of slow-proliferating cdc28-4 and cdc23-1 mutants to protein synthesis inhibitors", "conditions": "mutants severely impaired in cell division even at 23° C.; FIGS. 4C and D"}, "YAC-bearing strains": {"tested_on": "YAC-bearing strains", "conditions": "YACs with human or mouse DNA inserts; FIG. 5B", "protocol": "Strains (from the top): A11311, A16850, A17392, A17393, A17394, A13628, A17396, A17397, A16851.\nThe phenotypes shared by aneuploids might result from the mere presence of additional DNA or from the RNAs and proteins synthesized from these chromosomes. Thus, the effects of seven yeast artificial chromosomes (YACs) containing human or mouse DNA inserts ranging from approximately 350 kb to 1.6 MB in size were tested (Table 3).\nThe other phenotypes observed in aneuploids were not shared by the YAC-bearing strains. […] Progression through other cell cycle stages was not affected either as judged by DNA content analysis (FIGS. 5, C and D)."}}, "note": "Where two headings read alike, the source gives them in different places. Where a SMILES comes first, the peptide text is derived from it. The star is where a group is joined. Cbz = O=C(OCc1ccccc1)*"}
{"smiles": "O=c1cn[nH]c(=O)[nH]1", "note": "[6-Azauracil]", "values": [{"measurement": "colony formation of aneuploids on medium containing the agent", "setting": "aneuploid yeast strains", "value": "formed colonies as well as wild-type cells"}]}
{"smiles": "CC[C@H]1/C=C/C=C/C[C@@H](C)[C@H](O)[C@@](C)(O)C(=O)[C@@H](C)[C@H](O)[C@@H](C)C(=O)[C@@H](C)[C@H](O)[C@@H](C)/C=C/C(=O)O[C@@H]2[C@H](C)[C@H](CC1)O[C@]1(CC[C@H](C)[C@H](C[C@@H](C)O)O1)[C@H]2C", "note": "[oligomycin]", "values": [{"measurement": "sensitivity of aneuploid strains", "setting": "aneuploid yeast strains; increasing concentrations, FIG. 13I", "value": "did not exhibit increased sensitivity"}]}
{"smiles": "NC(=O)NO", "note": "[hydroxyurea]", "values": [{"measurement": "colony formation of aneuploids on medium containing the agent", "setting": "aneuploid yeast strains", "value": "formed colonies as well as wild-type cells"}]}
{"smiles": "CCCCNC(=O)n1c(NC(=O)OC)nc2ccccc21", "note": "[benomyl]", "values": [{"measurement": "sensitivity of aneuploid strains", "setting": "aneuploid yeast strains; 10 and 20 μg/ml, FIG. 13F", "value": "About half of the aneuploid strains analyzed exhibited increased sensitivity"}]}
{"smiles": "O=C(O)C1CCN1", "note": "(stereo not drawn) [azetidine 2-carboxylic acid]", "values": [{"measurement": "colony formation of aneuploids on medium containing the agent", "setting": "aneuploid yeast strains", "value": "formed colonies as well as wild-type cells"}]}
{"smiles": "C[C@@H]1C[C@@H]([C@H](O)CC2CC(=O)NC(=O)C2)C(=O)[C@@H](C)C1", "note": "[cycloheximide]", "values": [{"measurement": "sensitivity of cdc28-4 and cdc23-1 mutants", "setting": "[1]", "value": "did not exhibit increased sensitivity"}, {"measurement": "sensitivity of YAC-bearing strains", "setting": "YAC-bearing strains", "value": "did not exhibit increased sensitivity"}, {"measurement": "proliferation of aneuploid strains", "setting": "aneuploid yeast strains; 0.05 μg/ml, FIG. 4C", "value": "proliferation of most was impaired"}, {"measurement": "proliferation of all aneuploid strains", "setting": "aneuploid yeast strains; 0.1 μg/ml and 0.2 μg/ml, FIG. 4C", "value": "decreased proliferation"}, {"measurement": "proliferation of all aneuploid strains", "setting": "aneuploid yeast strains; all aneuploid strains, FIG. 4C", "value": "hampered"}]}
{"smiles": "OO", "note": "[hydrogen peroxide]", "values": [{"measurement": "proliferation of aneuploids in the presence of the agent", "setting": "aneuploid yeast strains; 1 mM, FIG. 13D, G", "value": "None of the aneuploids showed altered proliferation"}]}
{"smiles": "CC(=O)Nc1c2sscc-2n(C)c1=O", "note": "[Thiolutin]", "values": [{"measurement": "sensitivity of YAC-bearing strains", "setting": "YAC-bearing strains", "value": "did not exhibit increased sensitivity"}, {"measurement": "proliferation of aneuploids", "setting": "aneuploid yeast strains; high concentration 20 μg/ml, all aneuploids except disomes I, X, XIV, FIG. 4B", "value": "inhibited"}, {"measurement": "proliferation of aneuploids", "setting": "aneuploid yeast strains; low concentrations 5 μg/ml to 15 μg/ml, FIG. 13H", "value": "proliferation of only a subset of strains was impaired"}]}
{"smiles": "CC(C)C[C@@H](C=O)NC(=O)[C@H](CC(C)C)NC(=O)[C@H](CC(C)C)NC(=O)OCc1ccccc1", "note": "[MG 132] (Cbz-Leu-Leu-Leu-aldehyde)", "values": [{"measurement": "proliferation of aneuploid strains (ability to form colonies on plates containing the drug)", "setting": "aneuploid yeast strains; disomes IV, XII, XIII, XIV and XVI, PDR5 deleted, concentrations that wild-type cells grow at, FIG. 4F", "value": "inhibited"}]}
